Assay results from patent publication EP2559433A1, “Composition for lowering blood lipid and elevating high-density lipoprotein and method for manufacturing the same” (Sunway Biotech Co., Ltd., priority 2011, dated 2013).

Columns and labels:
[1] = tested on: hamsters feed with high cholesterol diet; assay: Cholesterol parameters in blood of hamsters fed a high cholesterol diet; type: in vivo; parameters: TC reducing rate / TG reducing rate / LDL-C reducing rate / LDL/HDL reducing rate / MDA reducing rate: concentration or dose not given beside the values; details: for LDL/HDL: ratio of LDL-C to HDL-C; for LDL/HDL / HDL-C content / LDL-C content / MDA content / TC content / TG content: high cholesterol diet hamsters fed for 8 weeks; for HDL-C increasing rate / LDL-C reducing rate / LDL/HDL reducing rate / MDA reducing rate / TC reducing rate / TG reducing rate: relative to HC (high cholesterol diet group), 8 weeks; for HDL-C content: serum high density lipoprotein cholesterol; for LDL-C content: serum low density lipoprotein cholesterol; for MDA content: serum malondialdehyde; for TC content: serum total cholesterol, mean ± spread; for TG content: serum triglyceride
Procedure: Hereinafter, the composition of the first preferred embodiment is called as monascin (MS for abbreviation), and the amount of the monascin taken by an experimental animal is equivalent to 9.82 mg taken by an adult human per day; the composition of the second preferred embodiment is called as ankaflavin (AF for abbreviation), and the amount of the ankaflavin taken by an experimental animal is equivalent to 1.43 mg taken by an adult human per day; the composition of the third preferred embodiment is called as monascin + ankaflavin (MS+AF for abbreviation), and the amount of the monascin and ankaflavin taken by an experimental animal are equivalent to 9.82 mg and 1.43 mg taken by an adult human per day respectively. Additionally, a composition containing monacolin K is utilized as a comparison group, which is called as MK for abbreviation.
(§1) Firstly, the experiment utilizes hamsters feed with high cholesterol diet as experimental animals, which are then feed with MS, AF, MS+AF, and MK for 8 weeks, and then each of cholesterol parameters in blood of the hamsters are analyzed. The cholesterol parameters include total cholesterol (TC), triglyceride (TG), high density lipoprotein cholesterol (HDL-C), low density lipoprotein cholesterol (LDL-C), ratio of LDL-C to HDL-C, and malondialdehyde (MDA). The amount of the MK taken by the experimental animals is equivalent to 2.89 mg taken by an adult human per day. Additionally, a normal diet group is referred to as NOR, and a high cholesterol diet group is referred to as HC.
Referring to the following table 1 and table 2, wherein the table 1 illustrates the results of the above-mentioned animal experiments, and the table 2 illustrates the reducing rate or the increasing rate of MS, AF, MS+AF, and MK relative to HC. […] In the results of the reducing rate of LDL-C, although the group of MS has the effect almost the same as MK, the groups of AF and MS+AF have the effect of lowering the amount of LDL-C better than the MK group. […]

[2] = tested on: lipid plaque on arterial vascular walls in the thoracic cavity; assay: Lipid plaque staining in arteries; type: in vivo, hamsters; details: Fig. 11; high cholesterol diet for eight weeks; MK 2.89 mg, MS 9.82 mg, AF 1.43 mg adult human equivalent per day
Procedure: as §1
Another important indicator for evaluating atherosclerosis is the analysis of lipid plaque staining in arteries, and the results of lipid plaque staining can indicate that whether lipid plaque deposits on arterial vascular walls. Large amounts of lipid with over-oxidation can cause bulk deposition of foam cells, and then the vascular walls lose elasticity and large amounts of lipid plaque are deposited, so as to lead to atherosclerosis. Referring to Fig. 11, which is a diagram of quantitative results of the lipid plaque staining experiment.

cholesterol biosynthesis = assay: Cell experiment on inhibition of cholesterol biosynthesis; type: cell-based; details: Fig. 12; cells treated at the same concentration (100 ppb)
Source text: In order to compare the inhibitory effect of cholesterol biosynthesis by monascin, ankaflavin and monacolin K, the present invention applies a cell experiment and treats cells with monascin, ankaflavin and monacolin K with the same concentration (100 ppb) for researching the influence of these ingredients on the cholesterol biosynthesis. Referring to Fig. 12, which is a comparative diagram for the effect of the inhibition of cholesterol by monascin, ankaflavin and monacolin K with the same concentration.

SMILES	LDL/HDL [1]	HDL-C increasing rate [1]	LDL-C reducing rate [1]	LDL/HDL reducing rate [1]	MDA reducing rate [1]	TC reducing rate [1]	TG reducing rate [1]	HDL-C content [1]	LDL-C content [1]	MDA content [1]	TC content [1]	TG content [1]	amount of lipid plaque [2]	effect of inhibiting the biosynthesis of cholesterol (cholesterol biosynthesis)
C/C=C/C1=CC2=C(CO1)C(=O)[C@]1(C)OC(=O)[C@H](C(=O)CCCCCCC)[C@H]1C2 [AF, ankaflavin]	0.355 ±0.049	17.3%	42.3%	37.6%	59.6%	28.6%	58.2%	118.6 ± 8.09 mg/dL	39.4 ± 5.80 mg/dL	9.07 ± 1.45 mg/dL	168.9 ± 11.5 mg/dL	94.5 ± 18.0 mg/dL		
CC[C@H](C)C(=O)O[C@H]1C[C@@H](C)C=C2C=C[C@H](C)[C@H](CC[C@@H]3C[C@@H](O)CC(=O)O3)[C@H]21 [MK, monacolin K, reference compound]	0.489 ±0.050	-1.2%	34.1%	14.1%	16.5%	19.6%	42.1%	96.9 ± 8.84 mg/dL	45.0 ± 6.97 mg/dL	10.37 ± 1.73 mg/dL	190.3 ± 25.1 mg/dL	131.1 ± 36.7 mg/dL	can lower the amount of lipid plaque	has the weakest effect
C/C=C/C1=CC2=C(CO1)C(=O)[C@]1(C)OC(=O)[C@H](C(=O)CCCCC)[C@H]1C2 [MS, monascin]	0.416 ±0.022	14.1%	33.9%	26.9%	40.1%	29.9%	63.4%	114.2 ± 9.36 mg/dL	45.1 ± 3.36 mg/dL	8.62 ± 1.45 mg/dL	165.8 ± 10.6 mg/dL	82.8 ± 9.0 mg/dL		
